# Active and inactive are the calls of the source. The rule behind the calls is not given here.
# Experiments:
# [1] = molecular target: T1, Lysine-specific histone demethylase 1A (Homo sapiens, UniProt O60341)
# Description: Inhibition of recombinant full length LSD1 (unknown origin) transfected in Escherichia coli BL21 (DE) using H3K4me2 as substrate by flourescence based analysis
# [2] = tested on: MGC-803; assay: Antitumor activity against human MGC-803 cells xenografted in nude mouse assessed as inhibition of tumor growth at 40 to 80 mg/kg/day, iv administered for 21 days; format: functional, organism-based; conditions: dose 40-80 mg/kg/day, time 21.0 day
# [3] = tested on: MGC-803; assay: Induction of apoptosis in human MGC-803 cells assessed as necrotic cells at 5 uM measured after 24 hrs by Annexin V-FITC/PI staining based flow cytometry analysis (Rvb= 1%); format: functional
# [4] = molecular target: T1, Lysine-specific histone demethylase 1A; assay: Inhibition of LSD1 in human MGC-803 cells assessed as increase in H3K4me2 expression measured after 24 hrs by western blot analysis; format: cell-based; conditions: dose 5-20 µM
# [5] = molecular target: T2, MAO-A (Homo sapiens, UniProt P21397); assay: Inhibition of N-terminal FLAG-tagged recombinant human MAO-A expressed in baculovirus-infected Sf9 cells at 5 uM using luciferin derivative as substrate pretreated for 15 mins followed by substrate addition and incubated for 60 mins by luciferase assay relative to control; conditions: probe luciferin derivative, time 75 min
# T2 sequence (P21397 whole entry): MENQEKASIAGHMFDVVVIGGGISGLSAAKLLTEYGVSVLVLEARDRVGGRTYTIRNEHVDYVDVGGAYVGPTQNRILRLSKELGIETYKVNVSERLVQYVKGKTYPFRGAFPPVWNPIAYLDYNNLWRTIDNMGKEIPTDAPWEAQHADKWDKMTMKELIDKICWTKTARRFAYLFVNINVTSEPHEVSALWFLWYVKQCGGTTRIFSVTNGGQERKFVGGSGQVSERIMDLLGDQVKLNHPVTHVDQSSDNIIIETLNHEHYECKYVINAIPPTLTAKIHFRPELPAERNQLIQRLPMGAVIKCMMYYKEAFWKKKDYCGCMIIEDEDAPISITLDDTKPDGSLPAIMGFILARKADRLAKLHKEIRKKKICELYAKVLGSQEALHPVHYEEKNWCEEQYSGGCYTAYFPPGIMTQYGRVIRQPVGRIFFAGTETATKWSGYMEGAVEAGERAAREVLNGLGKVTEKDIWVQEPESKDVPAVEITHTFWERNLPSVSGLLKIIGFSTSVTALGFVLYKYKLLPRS
# [6] = tested on: MGC-803; assay: Antitumor activity against human MGC-803 cells xenografted in nude mouse assessed as reduction in tumor weight at 40 mg/kg/day, iv administered for 21 days relative to control; format: functional; conditions: MGC-803, iv, 504 h, time 21 day
# [7] = tested on: HepG2; assay: cells; conditions: Homo sapiens, HepG2, 72 h
# Description: Antiproliferative activity against human HepG2 cells assessed as cell growth inhibition measured after 72 hrs by MTT assay
# [8] = tested on: MGC-803; assay: Induction of apoptosis in human MGC-803 cells assessed as live cells at 20 uM measured after 24 hrs by Annexin V-FITC/PI staining based flow cytometry analysis (Rvb= 89%); format: functional
# [9] = tested on: MCF7; assay: cells; conditions: Homo sapiens, MCF7, 72 h
# Description: Antiproliferative activity against human MCF7 cells assessed as cell growth inhibition measured after 72 hrs by MTT assay
# [10] = tested on: NCI-H460; assay: cells; conditions: Homo sapiens, NCI-H460, 72 h
# Description: Antiproliferative activity against human NCI-H460 cells assessed as cell growth inhibition measured after 72 hrs by MTT assay
# [11] = molecular target: T1, Lysine-specific histone demethylase 1A; assay: Inhibition of recombinant full length LSD1 (unknown origin) transfected in Escherichia coli BL21 (DE) at 5 uM using H3K4me2 as a substrate by flourescence based analysis relative to control
# [12] = tested on: MGC-803; assay: Inhibition of clonogenicity in human MGC-803 cells assessed as reduction in colony formation at 10 uM measured after 10 days by crystal violet staining based analysis relative to control; format: functional; conditions: MGC-803, 240 h, time 10 day
# [13] = Aqueous solubility of the compound in water; format: physicochemical
# [14] = tested on: MGC-803; assay: Induction of apoptosis in human MGC-803 cells assessed as early apoptotic cells at 20 uM measured after 24 hrs by Annexin V-FITC/PI staining based flow cytometry analysis (Rvb= 6.1%); format: functional
# [15] = tested on: MGC-803; assay: Antitumor activity against human MGC-803 cells xenografted in nude mouse assessed as pyknosis in tumor tissue at 40 to 80 mg/kg/day, iv measured after 21 days by H and E staining based histopathological analysis; format: functional, organism-based; conditions: dose 40-80 mg/kg/day, time 21.0 day
# [16] = tested on: MGC-803; assay: Inhibition of clonogenicity in human MGC-803 cells assessed as reduction in colony formation measured after 10 days by crystal violet staining based analysis; format: functional, cell-based; conditions: dose 1-20 µM, time 10.0 day
# [17] = tested on: NCI-H1975; assay: cells; conditions: Homo sapiens, NCI-H1975, 72 h
# Description: Antiproliferative activity against human NCI-H1975 cells assessed as cell growth inhibition measured after 72 hrs by MTT assay
# [18] = species: Homo sapiens; assay: Selectivity index, ratio of IC50 for inhibition of EGFR (unknown origin) to IC50 for inhibition of recombinant human full length LSD1 transfected in Escherichia coli BL21 (DE)
# [19] = molecular target: Epidermal growth factor receptor (Homo sapiens, UniProt P00533); assay: Inhibition of EGFR (unknown origin)
# Epidermal growth factor receptor, sequence (P00533 whole entry): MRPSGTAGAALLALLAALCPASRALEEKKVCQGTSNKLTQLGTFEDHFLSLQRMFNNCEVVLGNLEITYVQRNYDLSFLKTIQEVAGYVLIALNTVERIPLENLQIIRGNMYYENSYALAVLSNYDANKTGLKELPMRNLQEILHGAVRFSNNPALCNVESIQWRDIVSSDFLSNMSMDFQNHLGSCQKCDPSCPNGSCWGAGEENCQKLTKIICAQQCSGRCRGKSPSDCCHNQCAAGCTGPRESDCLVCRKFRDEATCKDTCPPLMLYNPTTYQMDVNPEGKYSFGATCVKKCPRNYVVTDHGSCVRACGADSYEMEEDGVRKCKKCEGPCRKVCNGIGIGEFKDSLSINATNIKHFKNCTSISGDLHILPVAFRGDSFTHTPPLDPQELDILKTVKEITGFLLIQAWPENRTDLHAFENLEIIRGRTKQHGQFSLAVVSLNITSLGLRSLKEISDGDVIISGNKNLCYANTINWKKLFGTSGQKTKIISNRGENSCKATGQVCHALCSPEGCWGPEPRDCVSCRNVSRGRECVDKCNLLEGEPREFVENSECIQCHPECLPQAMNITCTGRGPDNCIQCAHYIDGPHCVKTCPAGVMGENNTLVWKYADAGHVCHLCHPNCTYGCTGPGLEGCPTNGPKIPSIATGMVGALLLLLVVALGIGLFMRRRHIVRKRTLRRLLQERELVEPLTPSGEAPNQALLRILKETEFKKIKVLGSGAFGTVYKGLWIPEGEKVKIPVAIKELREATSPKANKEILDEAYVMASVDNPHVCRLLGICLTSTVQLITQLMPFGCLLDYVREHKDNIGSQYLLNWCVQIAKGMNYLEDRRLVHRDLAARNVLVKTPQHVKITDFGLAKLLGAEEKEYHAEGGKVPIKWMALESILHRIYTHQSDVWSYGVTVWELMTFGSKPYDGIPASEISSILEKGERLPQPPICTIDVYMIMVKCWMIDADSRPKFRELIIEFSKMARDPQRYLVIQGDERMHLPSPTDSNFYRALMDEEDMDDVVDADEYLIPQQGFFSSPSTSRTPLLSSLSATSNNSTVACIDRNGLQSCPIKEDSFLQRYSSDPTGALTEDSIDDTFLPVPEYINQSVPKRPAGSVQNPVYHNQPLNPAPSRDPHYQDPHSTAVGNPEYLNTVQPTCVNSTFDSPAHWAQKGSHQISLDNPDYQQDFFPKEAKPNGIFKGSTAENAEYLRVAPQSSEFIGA
# [20] = tested on: ECa-109 cell line; assay: cells; conditions: Homo sapiens, ECa-109, 72 h
# Description: Antiproliferative activity against human EC109 cells assessed as cell growth inhibition measured after 72 hrs by MTT assay
# [21] = tested on: BGC-823; assay: cells; conditions: Homo sapiens, BGC-823, 72 h
# Description: Antiproliferative activity against human BGC-823 cells assessed as cell growth inhibition measured after 72 hrs by MTT assay
# [22] = tested on: MGC-803; assay: Induction of apoptosis in human MGC-803 cells assessed as necrotic cells at 20 uM measured after 24 hrs by Annexin V-FITC/PI staining based flow cytometry analysis (Rvb= 1%); format: functional
# [23] = tested on: MGC-803; assay: Inhibition of epithelial mesenchymal transition process in human MGC-803 cells assessed as decrease in N-cadherin expression at 0.1 to 0.5 uM measured after 24 hrs western blot analysis; format: functional, cell-based; conditions: dose 0.1-0.5 µM
# [24] = tested on: MGC-803; assay: Inhibition of epithelial mesenchymal transition process in human MGC-803 cells assessed as increase in E-cadherin expression at 0.1 to 0.5 uM measured after 24 hrs western blot analysis; format: functional, cell-based; conditions: dose 0.1-0.5 µM
# [25] = tested on: MGC-803; assay: Antitumor activity against human MGC-803 cells xenografted in nude mouse assessed as chromatin condensation in tumor tissue at 40 to 80 mg/kg/day, iv measured after 21 days by H and E staining based histopathological analysis; format: functional, organism-based; conditions: dose 40-80 mg/kg/day, time 21.0 day
# [26] = tested on: MGC-803; assay: Induction of apoptosis in human MGC-803 cells assessed as early apoptotic cells at 10 uM measured after 24 hrs by Annexin V-FITC/PI staining based flow cytometry analysis (Rvb= 6.1%); format: functional
# [27] = Ocular toxicity in nude mouse xenografted with human MGC-803 cells at 40 to 80 mg/kg/day, iv administered for 21 days; format: organism-based; conditions: in vivo, 504 h, dose 40-80 mg/kg/day, time 21 day
# [28] = molecular target: Tyrosine-protein kinase BTK (Homo sapiens) (UniProt Q06187); assay: Inhibition of N-terminal GST-fused human full length recombinant BTK expressed in baculovirus-infected Sf21 cells at 5 uM using 5-FAM-EAIYAAPFAKKK as a substrate incubated for 60 mins in the presence of ATP by caliper analysis relative to control
# Tyrosine-protein kinase BTK (Homo sapiens), sequence (Q06187 whole entry, the tested form may be a part): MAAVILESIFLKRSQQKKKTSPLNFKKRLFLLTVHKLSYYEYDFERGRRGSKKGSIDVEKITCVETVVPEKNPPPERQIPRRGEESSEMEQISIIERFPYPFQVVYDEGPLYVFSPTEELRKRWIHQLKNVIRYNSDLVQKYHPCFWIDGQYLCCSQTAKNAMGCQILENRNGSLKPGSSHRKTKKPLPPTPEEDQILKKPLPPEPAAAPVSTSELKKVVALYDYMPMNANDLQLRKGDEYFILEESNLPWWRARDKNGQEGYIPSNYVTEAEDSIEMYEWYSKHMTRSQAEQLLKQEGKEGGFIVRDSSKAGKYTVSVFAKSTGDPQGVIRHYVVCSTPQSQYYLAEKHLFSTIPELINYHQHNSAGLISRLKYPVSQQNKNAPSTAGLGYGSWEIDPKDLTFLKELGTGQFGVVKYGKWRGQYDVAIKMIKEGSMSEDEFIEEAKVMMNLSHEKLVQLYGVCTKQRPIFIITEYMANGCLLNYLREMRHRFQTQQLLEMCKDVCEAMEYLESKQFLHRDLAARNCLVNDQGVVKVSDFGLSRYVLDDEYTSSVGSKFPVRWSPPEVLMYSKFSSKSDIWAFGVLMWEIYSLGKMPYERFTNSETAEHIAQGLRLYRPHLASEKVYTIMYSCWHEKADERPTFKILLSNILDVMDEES
# [29] = tested on: MGC-803; assay: Antitumor activity against human MGC-803 cells xenografted in nude mouse assessed as low cell density in tumor tissue at 40 to 80 mg/kg/day, iv measured after 21 days by H and E staining based histopathological analysis; format: functional, organism-based; conditions: dose 40-80 mg/kg/day, time 21.0 day
# [30] = tested on: NCI-H1650; assay: cells; conditions: Homo sapiens, NCI-H1650, 72 h
# Description: Antiproliferative activity against human NCI-H1650 cells assessed as cell growth inhibition measured after 72 hrs by MTT assay
# [31] = molecular target: Cyclin-dependent kinase 1 (Homo sapiens) (UniProt P06493); assay: Inhibition of CDK1 (unknown origin) at 5 uM using 5-FAM-QSPKKG-CONH2 as a substrate incubated for 60 mins in the presence of ATP by caliper analysis relative to control
# Cyclin-dependent kinase 1 (Homo sapiens), sequence (P06493 whole entry, looked up): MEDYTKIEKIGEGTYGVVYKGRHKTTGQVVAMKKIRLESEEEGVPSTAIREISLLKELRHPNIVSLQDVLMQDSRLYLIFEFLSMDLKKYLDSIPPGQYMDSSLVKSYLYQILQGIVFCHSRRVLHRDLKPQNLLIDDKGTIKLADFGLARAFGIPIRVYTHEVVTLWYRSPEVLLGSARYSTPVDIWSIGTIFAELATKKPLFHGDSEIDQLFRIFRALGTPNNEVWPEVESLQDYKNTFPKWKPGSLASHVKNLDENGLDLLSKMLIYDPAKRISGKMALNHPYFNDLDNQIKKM
# [32] = tested on: MGC-803; assay: Inhibition of cell migration in human MGC-803 cells at 0.5 uM measured after 48 hrs by transwell assay relative to control; format: functional
# [33] = molecular target: T3, MAO-B (Homo sapiens, UniProt P27338); assay: Inhibition of N-terminal FLAG-tagged recombinant human MAO-B expressed in baculovirus-infected Sf9 cells at 5 uM using luciferin derivative as substrate pretreated for 15 mins followed by substrate addition and incubated for 60 mins by luciferase assay relative to control; conditions: probe luciferin derivative, time 75 min
# T3 sequence (P27338 whole entry): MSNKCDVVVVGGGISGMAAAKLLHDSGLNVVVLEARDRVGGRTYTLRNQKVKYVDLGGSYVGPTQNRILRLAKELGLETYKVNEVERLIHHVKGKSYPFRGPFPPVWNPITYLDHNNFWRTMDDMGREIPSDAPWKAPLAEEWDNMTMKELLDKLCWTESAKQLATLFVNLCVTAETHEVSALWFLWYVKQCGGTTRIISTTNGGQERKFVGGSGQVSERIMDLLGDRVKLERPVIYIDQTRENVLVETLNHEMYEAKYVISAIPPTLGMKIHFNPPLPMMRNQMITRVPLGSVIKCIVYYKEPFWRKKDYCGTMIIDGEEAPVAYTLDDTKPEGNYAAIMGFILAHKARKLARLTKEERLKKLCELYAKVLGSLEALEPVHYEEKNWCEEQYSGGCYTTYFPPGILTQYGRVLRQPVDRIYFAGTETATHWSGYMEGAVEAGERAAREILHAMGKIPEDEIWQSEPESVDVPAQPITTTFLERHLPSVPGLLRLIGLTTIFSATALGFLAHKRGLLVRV
# [34] = molecular target: Glycogen synthase kinase-3 beta (Homo sapiens) (UniProt P49841); assay: Inhibition of GSK-3beta (unknown origin) at 5 uM relative to control
# Glycogen synthase kinase-3 beta (Homo sapiens), sequence (P49841 whole entry, looked up): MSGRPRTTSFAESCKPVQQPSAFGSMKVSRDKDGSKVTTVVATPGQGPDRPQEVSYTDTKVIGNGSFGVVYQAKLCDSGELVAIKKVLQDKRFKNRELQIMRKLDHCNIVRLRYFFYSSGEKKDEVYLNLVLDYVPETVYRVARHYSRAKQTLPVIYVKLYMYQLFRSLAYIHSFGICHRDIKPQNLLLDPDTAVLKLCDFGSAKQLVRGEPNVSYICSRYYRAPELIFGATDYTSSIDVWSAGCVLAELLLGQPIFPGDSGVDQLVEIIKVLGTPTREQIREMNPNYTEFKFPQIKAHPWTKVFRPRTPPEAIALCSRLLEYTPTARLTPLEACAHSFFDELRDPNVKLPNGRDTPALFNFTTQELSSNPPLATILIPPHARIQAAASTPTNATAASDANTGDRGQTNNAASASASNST
# [35] = tested on: GES1; assay: cells; conditions: Homo sapiens, GES1, 72 h
# Description: Cytotoxicity against human GES1 cells assessed as cell growth inhibition measured after 72 hrs by MTT assay
# [36] = tested on: MGC-803; assay: Induction of apoptosis in human MGC-803 cells assessed as late apoptotic cells at 20 uM measured after 24 hrs by Annexin V-FITC/PI staining based flow cytometry analysis (Rvb= 3.9%); format: functional
# [37] = tested on: MGC-803; assay: Induction of apoptosis in human MGC-803 cells assessed as necrotic cells at 10 uM measured after 24 hrs by Annexin V-FITC/PI staining based flow cytometry analysis (Rvb= 1%); format: functional
# [38] = Toxicity in nude mouse xenografted with human MGC-803 cells assessed as body weight loss at 40 to 80 mg/kg/day, iv administered for 21 days; format: organism-based; conditions: in vivo, 504 h, dose 40-80 mg/kg/day, time 21 day
# [39] = tested on: MGC-803; assay: Induction of apoptosis in human MGC-803 cells assessed as late apoptotic cells at 10 uM measured after 24 hrs by Annexin V-FITC/PI staining based flow cytometry analysis (Rvb= 3.9%); format: functional
# [40] = tested on: MGC-803; assay: Induction of apoptosis in human MGC-803 cells assessed as early apoptotic cells at 5 uM measured after 24 hrs by Annexin V-FITC/PI staining based flow cytometry analysis (Rvb= 6.1%); format: functional
# [41] = tested on: PC-3; assay: cells; conditions: Homo sapiens, PC-3, 72 h
# Description: Antiproliferative activity against human PC-3 cells assessed as cell growth inhibition measured after 72 hrs by MTT assay
# [42] = tested on: MGC-803; assay: Induction of apoptosis in human MGC-803 cells assessed as viable cells at 5 uM measured after 24 hrs by Annexin V-FITC/PI staining based flow cytometry analysis (Rvb= 89%); format: functional; conditions: read-out: Activity
# [43] = tested on: MGC-803; assay: Induction of apoptosis in human MGC-803 cells assessed as live cells at 10 uM measured after 24 hrs by Annexin V-FITC/PI staining based flow cytometry analysis (Rvb= 89%); format: functional
# [44] = tested on: MGC-803; assay: Induction of apoptosis in human MGC-803 cells assessed as late apoptotic cells at 5 uM measured after 24 hrs by Annexin V-FITC/PI staining based flow cytometry analysis (Rvb= 3.9%); format: functional
# [45] = tested on: MGC-803; assay: Antitumor activity against human MGC-803 cells xenografted in nude mouse assessed as reduction in tumor weight at 80 mg/kg/day, iv administered for 21 days relative to control; format: functional; conditions: MGC-803, iv, 504 h, time 21 day
# [46] = tested on: MGC-803; assay: cells; conditions: Homo sapiens, MGC-803, 72 h
# Description: Antiproliferative activity against human MGC-803 cells assessed as cell growth inhibition measured after 72 hrs by MTT assay
structure (smiles),measurement,setting,value
COCCOc1cc2ncnc(Sc3ccc(C)cc3)c2cc1OCCOC,IC50,[1],> 50 µM
COCCOc1cc2ncnc(Nc3ccc(F)cc3)c2cc1OCCOC,IC50,[1],> 50 µM
COCCOc1cc2ncnc(Oc3ccc(OC)cc3)c2cc1OCCOC,IC50,[1],> 50 µM
COCCOc1cc2ncnc(Sc3nc[nH]n3)c2cc1OCCOC,Activity,[2],Active
same,Activity,[3],0.4%
same,inhibition,[4],Dose-Dependent Effect
same,"inhibition at 1.25 h, 5 µM",[5],15%
same,inhibition in vivo at 40 mg/kg/day,[6],81.6%
same,IC50,[7],16.2 µM
same,Activity,[8],20.6%
same,IC50,[9],38.5 µM
same,IC50,[10],28.2 µM
same,inhibition,[11],97%
same,inhibition at 10 µM,[12],> 90%
same,solubility,[13],> 100 mg/mL
same,Activity,[14],31.2%
same,Activity,[15],Active
same,inhibition,[16],Dose-Dependent Effect
same,IC50,[17],26.6 µM
same,Ratio IC50,[18],7.5
same,IC50,[19],5.21 µM
same,IC50,[20],9.65 µM
same,IC50,[21],15.3 µM
same,Activity,[22],2.3%
same,inhibition,[23],Active
same,inhibition,[24],Active
same,Activity,[25],Active
same,Activity,[26],13.3%
same,Activity,[27],Non-Toxic
same,inhibition,[28],< 2%
same,Activity,[29],Active
same,IC50,[30],17.2 µM
same,inhibition,[31],< 2%
same,inhibition at 0.5 µM,[32],70%
same,"inhibition at 1.25 h, 5 µM",[33],18%
same,inhibition,[34],13%
same,IC50,[35],> 50 µM
same,Activity,[36],45.8%
same,Activity,[37],2.2%
same,Activity,[38],Non-Toxic
same,Activity,[39],29.3%
same,Activity,[40],10.3%
same,IC50,[41],> 50 µM
same,IC50,[1],0.69 µM
same,viability at 5 µM,[42],68.4%
same,Activity,[43],55.1%
same,Activity,[44],20.9%
same,inhibition in vivo at 80 mg/kg/day,[45],96.1%
same,IC50,[46],9.21 µM
COCCOc1cc2ncnc(N3CCN(C(C)=O)CC3)c2cc1OCCOC,IC50,[1],> 50 µM
COCCOc1cc2ncnc(N3CCN(c4ccccc4F)CC3)c2cc1OCCOC,IC50,[1],> 50 µM
COCCOc1cc2ncnc(Nc3ccc4c(c3)OCO4)c2cc1OCCOC,IC50,[1],> 50 µM
COCCOc1cc2ncnc(Sc3ccc(Cl)cc3)c2cc1OCCOC,IC50,[1],> 50 µM
COCCOc1cc2ncnc(Oc3cccc(Cl)c3)c2cc1OCCOC,IC50,[1],> 50 µM
